Laboratory results published in PMC12549899 (Nature Communications, 2025).
Substitutions are numbered along the chain they refer to. Values joined by “and” are separate entries in the source; they are usually repeats but may differ in a detail not shown here. Equal values may be shown once.

What was measured:
[1] = biological target: T1, DrOTOP1 F277A (Danio rerio, UniProt Q7ZWK8, F277A); experiment: Whole-cell patch-clamp, inhibition of acid-evoked currents, DrOTOP1 F277A; assay type: cell-based, zebrafish (Danio rerio); settings: single cells or mean
T1 construct: A previously generated codon-optimized full-length DrOTOP1[8]; (UniProt: Q7ZWK8) construct; expressed in transfected cells; host or cells: HEK-293 (CRL-1573, ATCC)
T1 sequence (Q7ZWK8 1-586 F277A): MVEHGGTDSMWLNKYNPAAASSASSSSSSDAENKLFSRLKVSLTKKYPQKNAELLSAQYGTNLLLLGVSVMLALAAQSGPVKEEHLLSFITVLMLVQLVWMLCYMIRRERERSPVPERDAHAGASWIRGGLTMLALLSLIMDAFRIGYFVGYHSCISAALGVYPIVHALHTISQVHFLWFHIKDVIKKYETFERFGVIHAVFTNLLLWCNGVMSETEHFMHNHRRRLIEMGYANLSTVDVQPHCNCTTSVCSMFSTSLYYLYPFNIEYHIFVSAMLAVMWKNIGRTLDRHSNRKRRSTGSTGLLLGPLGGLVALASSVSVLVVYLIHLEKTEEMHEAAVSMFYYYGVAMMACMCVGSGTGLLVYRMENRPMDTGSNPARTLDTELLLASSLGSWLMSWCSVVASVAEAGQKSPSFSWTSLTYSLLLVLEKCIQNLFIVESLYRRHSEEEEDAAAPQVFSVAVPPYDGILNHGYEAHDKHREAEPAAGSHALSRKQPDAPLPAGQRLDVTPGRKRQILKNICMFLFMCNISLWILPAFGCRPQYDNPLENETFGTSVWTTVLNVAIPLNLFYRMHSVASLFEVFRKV
From the text: To functionally test the significance of the two binding sites identified by cryo-EM, we generated point mutations of DrOTOP1 using the binding poses and conformational changes observed in DrOTOP1_C2.2 to guide our mutations. As per the binding pose that best fits our cryo-EM density, C2.2 forms the following interactions in the outer site: hydrophobic packing against many non-polar residues W126, G130, M133, L134, F271, F570, and M573, and π-stacking with W532 (Fig. 5A). In addition, C2.2 could potentially form H-bonds with E267, if the sidechain is protonated or a water bridge is present, and with H574 if it moves closer (Fig. 5A). Likewise, C2.36 presents a heterocyclic nitrogen that can potentially form a H-bond with E267, similarly, provided a protonation or water bridge is present (Fig. 5B). In addition, C2.36 forms a T-shaped π-stacking interaction with H574, whose sidechain has rotated 90 degrees (compared to DrOTOP1_apo), presumably to accommodate the interaction (Fig. 5B). […]
(§1) Whole-cell patch-clamp recording was performed as previously described[6],[22],[25]. Recordings were made with an Axopatch 200B amplifier, digitized with a Digidata 1322a 16-bit data acquisition system, acquired with pClamp 8.2 and analyzed with Clampfit 10 (Molecular Devices). […]

[2] = biological target: T2, DrOTOP1 L385W (Danio rerio, UniProt Q7ZWK8, L385W); experiment: Whole-cell patch-clamp, inhibition of acid-evoked currents, DrOTOP1 L385W; assay type: cell-based, zebrafish (Danio rerio); settings: single cells or mean; for Inhibition of currents: 10 µM
T2 construct: A previously generated codon-optimized full-length DrOTOP1[8]; (UniProt: Q7ZWK8) construct; expressed in transfected cells; host or cells: HEK-293 (CRL-1573, ATCC)
T2 sequence (Q7ZWK8 1-586 L385W): T1 sequence (Q7ZWK8 1-586 F277A) with A277F, L385W
From the text: To functionally test the significance of the two binding sites identified by cryo-EM, we generated point mutations of DrOTOP1 using the binding poses and conformational changes observed in DrOTOP1_C2.2 to guide our mutations. As per the binding pose that best fits our cryo-EM density, C2.2 forms the following interactions in the outer site: hydrophobic packing against many non-polar residues W126, G130, M133, L134, F271, F570, and M573, and π-stacking with W532 (Fig. 5A). In addition, C2.2 could potentially form H-bonds with E267, if the sidechain is protonated or a water bridge is present, and with H574 if it moves closer (Fig. 5A). Likewise, C2.36 presents a heterocyclic nitrogen that can potentially form a H-bond with E267, similarly, provided a protonation or water bridge is present (Fig. 5B). In addition, C2.36 forms a T-shaped π-stacking interaction with H574, whose sidechain has rotated 90 degrees (compared to DrOTOP1_apo), presumably to accommodate the interaction (Fig. 5B). Considering other inhibitors discovered from the second round of screening, many contain functional groups like the carbonyl groups of Group 1 molecules and the heterocyclic nitrogen atoms of Group 2 molecules (Supplementary Fig. 3E), that can potentially form similar H-bonds with E267 as C2.2 and C2.36, assuming the binding modes are similar. In the central site, C2.2 binds with the following interactions: hydrophobic packing with residues V201, F271, A274, V278, and A388, π-stacking with F277, and H-bonding with E384 (Fig. 5C).
We next tested mutations of the central site (L205W, A274W, F277A, E384A L385W, A388W). V201W and S389W, two additional central site mutations, were excluded from the study due to complete loss of channel activity. […]
as §1

What does the source list for `C=C(C)COc1ccccc1NC(=O)c1nc[nH]c1C` [C2.2]?
inhibition at 10 µM [1]: 76.2%; Inhibition of currents ([2]; mean): 74.03%; Inhibition of currents ([2]; single cells): 74.8228% and 76.1135% and 70.5882% and 77.6399%; inhibition at 10 µM [2]: 71%
